Laboratory results from patent US20260256753A1, “USE OF AN OREXIN 2 RECEPTOR AGONIST FOR IMPROVING RESPIRATORY FUNCTION DURING SLEEP” (TAKEDA PHARMACEUTICAL COMPANY LIMITED, priority 2023, published 2026).

Columns and labels:
[1] = Plasma concentration of Compound C after intravenous and oral administration in rats; format: in vivo, rat; conditions: intravenous 0.3 and 1 mg/kg versus oral 3 and 10 mg/kg, respectively
Description: Due to technical feasibility of the experiment, anesthetized rats were used for EMG recording of the diaphragm. Compound C was administered intravenously to anesthetized rats in this experiment. To understand the relationship between the plasma effective concentration of Compound C for arousal and that for activation of the diaphragm, plasma concentration of Compound C after intravenous administration was measured. The maximum plasma concentrations of Compound C after intravenous administration at 0.3 and 1 mg/kg were similar to those after oral administration at 3 and 10 mg/kg, respectively.

[2] = tested on: patients with obstructive sleep apnea; test: Phase 1b crossover study in obstructive sleep apnea: upper airway collapsibility index (UACI) during wakefulness; format: in vivo, human
Description: A phase 1b, randomized, double-blind, placebo-controlled, 3-period crossover study was conducted to evaluate the safety, tolerability, pharmacodynamic, and pharmacokinetic effects of overnight intravenous COMPOUND A in patients with obstructive sleep apnea (OSA). This study was planned to further evaluate COMPOUND A intravenous administration (IV) in adults with OSA, hypothesizing that nonwake-promoting exposures of COMPOUND A would increase genioglossal muscle tone and increase airway patency via the increasing activity of hypoglossal motoneurons. The main goal of this study was to evaluate the mechanistic potential of OX2R agonism for treatment of OSA using COMPOUND A IV infusion to determine appropriate use in future trials with an oral OX2R agonist.
Eligible participants were randomly assigned (in a double-blinded manner) to 1 of 6 treatment sequences. In each treatment period, participants underwent 3 UACI assessments, a 10-minute evaluation that tested the key biological mechanism that causes OSA (as described by Osman, A. M., et al., 2019, Sleep, 42 (7), 1-10), followed by an overnight polysomnography (PSG). After the first baseline UACI assessment (U1), an IV infusion regimen of COMPOUND A or placebo was administered over approximately 10 hours to achieve specific plasma concentrations to evaluate the effect of COMPOUND A on the UACI and PSG metrics. […]

SMILES | maximum plasma concentrations after intravenous administration compared with oral administration [1] | upper airway collapsibility as measured by UACI [2]
CC(C)(O)C(=O)N1CC(F)(F)[C@H](NS(C)(=O)=O)[C@@H]1Cc1cccc(-c2cc(F)cc(F)c2)c1F [Compound C, N-{(2S,3R)-4,4-difluoro-1-(2-hydroxy-2-methylpropanoyl)-2-[(2,3′,5′-trifluoro[1,1′-biphenyl]-3-yl)methyl]pyrrolidin-3-yl}methanesulfonamide] | similar | 
COC(=O)N1CCC[C@H](NS(C)(=O)=O)[C@@H]1CO[C@H]1CC[C@@H](c2ccccc2)CC1 (relative stereo) [Compound A, methyl(2R,3S)-3-((methylsulfonyl)amino)-2-(((cis-4-phenylcyclohexyl)oxy)methyl) piperidine-1-carboxylate] |  | no consistent improvement
